Literature values in patent US5582832A, “Compositions for topical application to skin” (priority 1995, dated 1996).

Test system: keratinocytes
Details: exogenous or endogenous; cited from earlier work

| SMILES | inhibition of DNA synthesis and induction of differentiation (in words) |
| --- | --- |
| C=C1CC[C@H](O)C/C1=C/C=C1\CCC[C@]2(C)[C@@H]([C@H](C)CCCC(C)(C)O)CC[C@@H]12 [25-hydroxyvitamin D (25D), 25-hydroxyvitamin D] | inhibit DNA synthesis (i.e., inhibit growth) and induce differentiation of keratinocytes |
| C=C1/C(=C\C=C2/CCC[C@]3(C)[C@@H]([C@H](C)CCCC(C)(C)O)CC[C@@H]23)C[C@@H](O)C[C@@H]1O [1,25-(OH)2 D3] | inhibit DNA synthesis (i.e., inhibit growth) and induce differentiation of keratinocytes |
